{"source": "patent US8106065B2", "about": "“Antitussive agent” (Toray Industries, Inc., priority 2005, dated 2012)", "tested_on": "coughing induced by citric acid", "experiment": "Effect on guinea pig coughing models induced by citric acid", "type": "in vivo", "settings": "s.c.; for antitussive effect (number of coughs): Comparative Example 1; for effects for suppressing coughs in comparison to the cough number of the pathosis-induced group: Example 3, 0.1 mg/kg, p<0.05 t-Test", "excerpt": "The fact that the morphinan derivatives having the nitrogen-containing cyclic substituent, represented by Formula (I) and the pharmaceutically acceptable acid addition salts thereof are effective for the therapy of coughing may be confirmed by showing inhibitory action against coughing of a guinea pig, which coughing has been induced by administering citric acid to the guinea pig. The inhibitory action against the coughing induced by citric acid administration may be confirmed by the method described in the Examples, but the method is not restricted thereto.\nA solution of test substance, a solution of positive control substance (codeine phosphate) or the administration solvent was subcutaneously administered to 6 week-old Hartley guinea pigs at a volume of 0.1 mL/100 g. After leaving the guinea pigs to stand for 25 minutes, they were retained in acrylic chambers for cough detection and the chambers were set to a measurement equipment. Thirty minutes after the subcutaneous administration of the test substance, the nebulizer was turned on and 100 mM citric acid solution, a cough inducer, was atomized and sprayed to the face of each guinea pig for a period of 15 minutes (velocity: 50 mm/min). A minipolygraph was used for recording, and the respiratory waveform within the period of 15 minutes was recorded. A signal when a large and acute change of flow rate compared to the respiratory waveform occurred independently was considered as a cough, and marked on the recording sheet. The marking was conducted while recording the respiratory waveform. When a large and continuous amplitude arose by struggling, the amplitude was distinguished by noting that it was caused by struggling. Since some coughings cause just before, and/or between struggling, the recording sheet and the motion of the guinea pig were observed as simultaneously as possible.", "note": "Structures can show the parent of a compound that is named as a salt.", "data": [{"smiles": "O=C1c2ccccc2C(=O)N1[C@@H]1CC[C@@]2(O)[C@H]3Cc4ccc(O)c5c4[C@@]2(CCN3CC2CC2)[C@H]1O5", "note": "[Compound 1, N-(17-cyclopropylmethyl-4,5α-epoxy-3,14-dihydroxy-morphinan-6β-yl)-phthalimide]", "values": [{"measurement": "effect for suppressing coughs in comparison to the cough number of the pathosis-induced group", "setting": "Example 1, 1 mg/kg, 100 mM citric acid spray 30 min after dosing, p<0.01, n=7", "value": "approximately 94%"}, {"measurement": "effect for suppressing coughs in comparison to the cough number of the pathosis-induced group", "setting": "Example 2, 0.003 mg/kg, p<0.025 1 tailed-Shirley-Williams-Test, n=3", "value": "approximately 50%"}]}, {"smiles": "Oc1ccc2c3c1O[C@H]1[C@H](N4CCCC4)CC[C@@]4(O)[C@@H](C2)N(CC2CC2)CC[C@]314", "note": "[Compound 2, 17-cyclopropylmethyl-4,5α-epoxy-6β-(pyrrolidine-1-yl)-morphinan-3,14-diol.tartaric acid salt]", "values": [{"measurement": "antitussive effect (number of coughs)", "setting": "10 mg/kg", "value": "no antitussive effect was observed"}]}, {"smiles": "O=C1C2=C(CCCC2)C(=O)N1[C@@H]1CC[C@@]2(O)[C@H]3Cc4ccc(O)c5c4[C@@]2(CCN3CC2CC2)[C@H]1O5", "note": "[Compound 3, N-(17-cyclopropylmethyl-4,5α-epoxy-3,14-dihydroxy-morphinan-6β-yl)-3,4,5,6-tetrahydrophthalimide.tartaric acid salt]", "values": [{"measurement": "effects for suppressing coughs in comparison to the cough number of the pathosis-induced group", "setting": "n=3", "value": "approximately 29%"}]}, {"smiles": "O=C1c2ccccc2CN1[C@@H]1CC[C@@]2(O)[C@H]3Cc4ccc(O)c5c4[C@@]2(CCN3CC2CC2)[C@H]1O5", "note": "[Compound 4, 2-(7-cyclopropylmethyl-4,5α-epoxy-3,14-dihydroxy-morphinan-6β-yl)-2,3-dihydro-isoindol-1-one-tartaric acid salt]", "values": [{"measurement": "effects for suppressing coughs in comparison to the cough number of the pathosis-induced group", "setting": "n=3", "value": "~25", "unit": "%"}]}, {"smiles": "O=C1c2ccccc2S(=O)(=O)N1[C@@H]1CC[C@@]2(O)[C@H]3Cc4ccc(O)c5c4[C@@]2(CCN3CC2CC2)[C@H]1O5", "note": "[Compound 5, N-(17-cyclopropylmethyl-4,5α-epoxy-3,14-dihydroxy-morphinan-6β-yl)-O-sulfonbenzoic acid imide-tartaric acid salt]", "values": [{"measurement": "effects for suppressing coughs in comparison to the cough number of the pathosis-induced group", "setting": "n=3", "value": "~28", "unit": "%"}]}, {"smiles": "O=C1C=CC(=O)N1[C@@H]1CC[C@@]2(O)[C@H]3Cc4ccc(O)c5c4[C@@]2(CCN3CC2CC2)[C@H]1O5", "note": "[Compound 6, N-(17-cyclopropylmethyl-4,5α-epoxy-3,14-dihydroxy-morphinan-6β-yl)-maleimide-tartaric acid salt]", "values": [{"measurement": "antitussive effect (number of coughs)", "setting": "1 mg/kg", "value": "no antitussive effect was observed"}]}, {"smiles": "COc1ccc2c3c1O[C@H]1[C@@H](O)C=C[C@H]4[C@@H](C2)N(C)CC[C@@]341", "note": "[codeine phosphate, reference compound]", "values": [{"measurement": "effect for suppressing coughs", "setting": "Example 1, 10 mg/kg, 100 mM citric acid spray 30 min after dosing, vs pathosis-induced group, p<0.05, n=7", "value": "approximately 51%"}, {"measurement": "effect for suppressing coughs", "setting": "Example 2, 10 mg/kg, p<0.05 Welch-Test, n=3", "value": "approximately 37%"}]}]}
